This assay relates to PBMC of HLA-A*02 positive healthy donors. The assay is described as follows: IFN-γ ELISPOT, healthy donors. The note with it: peripheral blood samples of healthy donors, IFN-γ ELISPOT.

“Also recorded” adds a separate entry of the source.

Procedure: To determine the frequency of OFA/iLR peptide-specific T cells in patients, ELISPOT-assays were performed using the Interferon-γ-ELISPOT-Kit (Becton Dickinson, Heidelberg, Germany) according to manufacturer's instructions.
Prior to analysis, T cells from patients and healthy donors had been kept in culture for seven days in the presence of Interleukin-2 (IL microgram/10^6 PBMC/milliliter).

On to “ALCNTDSPL (listed as Homo sapiens) [ILR2]”, for which the “CTL / spontaneous T cell responses against peptide in healthy individuals” value is reported as “no spontaneous T cell responses; also recorded: low numbers of CTL”.
For “LLAARAIVAI (listed as Homo sapiens) [ILR1]” the value was “no spontaneous T cell responses; also recorded: low numbers of CTL”.
